# Measurements: ChEMBL document CHEMBL5247617, “4-Arylthiosemicarbazide derivatives - Pharmacokinetics, toxicity and anti-Toxoplasma gondii activity in vivo” (Eur J Med Chem, 2022)
# Activity calls are given as the source filed them. No cut-off for these calls is given here.
# How the values were obtained:
# [1] = Toxicity in BALB/c mouse assessed as increase in serum ALT level at 50 mg/kg, po administered for 5 days and measured after 14 days by ELISA method; type: organism-based; conditions: in vivo, 120 h, time 5 day
# [2] = tested on: Toxoplasma gondii; assay: Antiparasitic activity against Toxoplasma gondii RH infected in BALB/c mouse assessed as decrease in IFNgamma level in serum at 25 to 50 mg/kg, po administered for 5 days starting from 24 hrs post infection by ELISA method; type: functional, organism-based; conditions: dose 25-50 mg/kg, time 5.0 day
# [3] = AUC in BALB/c mouse serum at 25 mg/kg, po measured upto 60 mins by LC-MS/MS analysis; type: ADME, organism-based; design: dose 25 mg/kg, time < 60 min, route po; conditions: in vivo, 1 h
# [4] = Cmax in BALB/c mouse serum at 50 mg/kg, po measured upto 60 mins by LC-MS/MS analysis; type: ADME, organism-based; design: time < 60 min, dose 50 mg/kg, route po; conditions: in vivo, 1 h
# [5] = AUC in BALB/c mouse brain at 25 mg/kg, po measured upto 24 hrs by LC-MS/MS analysis; type: ADME, organism-based; design: time < 24 hrs, dose 25 mg/kg, route po
# [6] = tested on: Toxoplasma gondii; assay: Antiparasitic activity against Toxoplasma gondii DX infected in C3H/HeOuJ mouse assessed as prolongation of survival at 25 to 50 mg/kg, po administered for 5 days starting from 24 hrs post infection by Kaplan-Meier method; type: functional, organism-based; conditions: dose 25-50 mg/kg, time 5.0 day
# [7] = Toxicity in BALB/c mouse assessed as changes in body weight at 1000 mg/kg, po administered once and observed for 10 days; type: organism-based; conditions: in vivo, 240 h, time 10 day
# [8] = Toxicity in BALB/c mouse assessed as changes in liver weight at 50 mg/kg, po administered for 5 days and measured after 1 day; type: organism-based; conditions: in vivo, 120 h, time 5 day
# [9] = Toxicity in BALB/c mouse assessed as disseminated necrosis of hepatocytes at 50 mg/kg, po administered for 5 days and measured after 1 day by hematoxylin-eosin staining based microscopic analysis; type: organism-based; conditions: in vivo, 120 h, time 5 day
# [10] = tested on: Toxoplasma gondii; assay: Antiparasitic activity against Toxoplasma gondii RH infected in BALB/c mouse assessed as reduction of bradyzoite gene copies in heart at 50 mg/kg, po administered every 12 and 24 hrs for 5 days starting from 24 hrs post infection by real-time qPCR analysis; type: functional, organism-based; conditions: time 5.0 day
# [11] = tested on: Toxoplasma gondii; assay: Antiparasitic activity against Toxoplasma gondii RH infected in BALB/c mouse assessed as reduction in number of bradyzoite gene copies in muscles at 25 mg/kg, po administered every 24 hrs for 5 days starting from 24 hrs post infection by real-time qPCR analysis; type: functional; conditions: time 5 day
# [12] = Toxicity in BALB/c mouse assessed as changes in liver weight at 50 mg/kg, po administered for 5 days and measured after 14 days; type: organism-based; conditions: in vivo, 120 h, time 5 day
# [13] = Elimination half-life in BALB/c mouse brain at 25 mg/kg, po measured upto 24 hrs by LC-MS/MS analysis; type: ADME, organism-based; conditions: read-out: beta t1/2 (converted)
# [14] = Toxicity in BALB/c mouse assessed as changes in size of hepatocyte nuclei at 50 mg/kg, po administered for 5 days and measured after 1 day by hematoxylin-eosin staining based microscopic analysis; type: organism-based; conditions: hepatocytes, 120 h, time 5 day
# [15] = AUC in BALB/c mouse brain at 50 mg/kg, po measured upto 24 hrs by LC-MS/MS analysis; type: ADME, organism-based; design: dose 50 mg/kg, time < 24 hrs, route po
# [16] = Cmax in BALB/c mouse brain at 50 mg/kg, po measured upto 24 hrs by LC-MS/MS analysis; type: ADME, organism-based; design: time < 24 hrs, dose 50 mg/kg, route po; conditions: in vivo
# [17] = AUC in BALB/c mouse serum at 50 mg/kg, po measured upto 60 mins by LC-MS/MS analysis; type: ADME, organism-based; design: time < 60 min, dose 50 mg/kg, route po; conditions: in vivo, 1 h
# [18] = Tmax in BALB/c mouse serum at 50 mg/kg, po measured upto 60 mins by LC-MS/MS analysis; type: ADME, organism-based; conditions: in vivo, 1 h
# [19] = Oral bioavailability in BALB/c mouse serum at 25 mg/kg measured upto 60 mins by LC-MS/MS analysis; type: ADME, organism-based
# [20] = tested on: Toxoplasma gondii; assay: Antiparasitic activity against Toxoplasma gondii RH infected in BALB/c mouse assessed as decrease in number of bradyzoite gene copies in brain at 50 mg/kg, po administered every 24 hrs for 5 days starting from 24 hrs post infection by real-time qPCR analysis; type: functional, organism-based; conditions: time 5.0 day
# [21] = Oral bioavailability in BALB/c mouse brain at 50 mg/kg measured upto 24 hrs by LC-MS/MS analysis; type: ADME, organism-based
# [22] = Cmax in BALB/c mouse serum at 25 mg/kg, po measured upto 60 mins by LC-MS/MS analysis; type: ADME, organism-based; design: dose 25 mg/kg, time < 60 min, route po; conditions: in vivo, 1 h
# [23] = Toxicity in BALB/c mouse assessed as disseminated necrosis of hepatocytes at 50 mg/kg, po administered for 5 days and measured after 14 days by hematoxylin-eosin staining based microscopic analysis; type: organism-based; conditions: in vivo, 120 h, time 5 day
# [24] = Elimination half-life in BALB/c mouse serum at 25 mg/kg, po measured upto 60 mins by LC-MS/MS analysis; type: ADME, organism-based; conditions: in vivo, 1 h
# [25] = tested on: Toxoplasma gondii; assay: Antiparasitic activity against Toxoplasma gondii RH infected in BALB/c mouse assessed as prolongation of animal survival at 25 to 50 mg/kg, po administered for 5 days starting from 24 hrs post infection by Kaplan-Meier method; type: functional, organism-based; conditions: dose 25-50 mg/kg, time 5.0 day
# [26] = Cmax in BALB/c mouse brain at 25 mg/kg, po measured upto 24 hrs by LC-MS/MS analysis; type: ADME, organism-based; design: time < 24 hrs, dose 25 mg/kg, route po; conditions: in vivo
# [27] = Elimination half-life in BALB/c mouse serum at 50 mg/kg, po measured upto 60 mins by LC-MS/MS analysis; type: ADME, organism-based; conditions: in vivo, 1 h
# [28] = Elimination half-life in BALB/c mouse brain at 50 mg/kg, po measured upto 24 hrs by LC-MS/MS analysis; type: ADME, organism-based; conditions: read-out: beta t1/2 (converted)
# [29] = Oral bioavailability in BALB/c mouse brain at 25 mg/kg measured upto 24 hrs by LC-MS/MS analysis; type: ADME, organism-based
# [30] = tested on: Toxoplasma gondii; assay: Antiparasitic activity against Toxoplasma gondii RH infected in BALB/c mouse assessed as survival rate at 50 mg/kg, po administered every 12 hrs for 5 days starting from 24 hrs post infection by Kaplan-Meier method; type: functional; conditions: 120 h, time 5 day
# [31] = Tmax in BALB/c mouse brain at 50 mg/kg, po measured upto 24 hrs by LC-MS/MS analysis; type: ADME, organism-based
# [32] = tested on: L929; assay: Cytotoxicity against mouse L929 cells assessed as reduction in cell viability incubated for 24 hrs by MTT assay; type: toxicity, cell-based; conditions: l929, 24 h
# [33] = Toxicity in BALB/c mouse assessed as changes in size of hepatocyte nuclei at 50 mg/kg, po administered for 5 days and measured after 14 days by hematoxylin-eosin staining based microscopic analysis; type: organism-based; conditions: hepatocytes, 120 h, time 5 day
# [34] = tested on: Toxoplasma gondii; assay: Antiparasitic activity against Toxoplasma gondii RH infected in human Hs27 cells assessed as parasitic growth inhibition incubated for 24 hrs followed by [5,6-3H] uracil addition and measured after 72 hrs by liquid scintillation counter analysis; type: functional, organism-based
# [35] = Tmax in BALB/c mouse serum at 25 mg/kg, po measured upto 60 mins by LC-MS/MS analysis; type: ADME, organism-based; conditions: in vivo, 1 h
# [36] = Oral bioavailability in BALB/c mouse serum at 50 mg/kg measured upto 60 mins by LC-MS/MS analysis; type: ADME, organism-based
# [37] = Toxicity in BALB/c mouse assessed as changes in body weight at 25 to 50 mg/kg, po administered for 5 days and measured on day 1 and day 14; type: organism-based; conditions: in vivo, 120 h, dose 25-50 mg/kg, time 5 day
# [38] = Tmax in BALB/c mouse brain at 25 mg/kg, po measured upto 24 hrs by LC-MS/MS analysis; type: ADME, organism-based
# [39] = Toxicity in BALB/c mouse assessed as changes in serum AST level at 50 mg/kg, po administered for 5 days and measured on day 1 and day 14 by ELISA method; type: organism-based; conditions: in vivo, 120 h, time 5 day
# [40] = tested on: Toxoplasma gondii; assay: Antiparasitic activity against Toxoplasma gondii RH infected in BALB/c mouse assessed as reduction of daughter tachyzoites in blood at 25 to 50 mg/kg, po administered for 5 days starting from 24 hrs post infection by real-time qPCR analysis; type: functional, organism-based; conditions: dose 25-50 mg/kg, time 5.0 day
# [41] = tested on: HS27; assay: Cytotoxicity against human HS27 cells assessed as reduction in cell viability; type: toxicity, cell-based
# [42] = Toxicity in BALB/c mouse assessed as changes in creatinine level at 50 mg/kg, po administered for 5 days and measured on day 1 and day 14 by colorimetric assay; type: organism-based; conditions: in vivo, 120 h, time 5 day
smiles,measurement,setting,value
Cc1nc[nH]c1C(=O)NNC(=S)Nc1cccc(I)c1,Activity,[1],Toxic
same,Activity,[2],Active
same,AUC,[3],150.55 µg·h/mL
same,Cmax,[4],35.32 µg/mL
same,AUC at 24 h,[5],69.9 ng·h/mL
same,Activity,[6],Active
same,Activity,[7],Non-Toxic
same,Activity,[8],Non-Toxic
same,Activity,[9],Toxic
same,Activity,[10],Active
same,Activity,[11],16
same,Activity,[12],Non-Toxic
same,half-life,[13],29.4 min
same,Activity,[14],Toxic
same,AUC at 24 h,[15],167 ng·h/mL
same,Cmax,[16],174.33 ng/mg
same,AUC,[17],170.39 µg·h/mL
same,Tmax,[18],15 min
same,bioavailability,[19],30.1%
same,Activity,[20],Active
same,bioavailability,[21],0.98%
same,Cmax,[22],30.85 µg/mL
same,Activity,[23],Toxic
same,beta t1/2,[24],24.6 min
same,Activity,[25],Active
same,Cmax,[26],94.16 ng/mg
same,beta t1/2,[27],23.4 min
same,half-life,[28],45.6 min
same,bioavailability,[29],0.46%
same,survival at 50 mg/kg,[30],20%
same,Tmax,[31],30 min
same,CC30,[32],213.27 µM
same,Activity,[33],Toxic
same,IC50,[34],25.7 µM
same,Tmax,[35],15 min
same,bioavailability,[36],17%
same,Activity,[37],Non-Toxic
same,Tmax,[38],15 min
same,Activity,[39],Non-Toxic
same,Activity,[40],Active
same,CC30,[41],209.45 µM
same,Activity,[42],Non-Toxic
